Columns and labels:
[1] = target: maltase prepared from porcine intestinal mucosa; test: maltase inhibitory activity, maltose as substrate; assay type: biochemical; settings: substrate 0.05 M maltose, read-out: IC50 (M), concentration of 50% inhibition
Description: (§1) The inhibitory activities of the compounds of this invention against α-glucosidase (yeast, type I, produced by Sigma Chemical Co.,U.S.A.)as well as maltase and saccharase prepared from porcine intestinal mucosa (prepared in accordance with the procedure as described by B. Borgstroom and A. Dahlgvist in Acta Chem. Scand.; 12, 1997-2006, (1958)), when maltose and sucrose are used as a substrate, are determined by adding to 0.25 ml of a solution of an enzyme prepared by diluting suitably with 0.02 M phosphate buffer (pH 6.8) 0.5 ml of a solution of an inhibitory substance to be tested in the same buffer and 0.25 ml of 0.05 M maltose or 0.05 M sucrose as the substrate in the same buffer allowing the mixture to react at 37° C. for 10 minutes, then adding 3 ml of Glucose B-Test Reagent (a glucose oxidase reagent for measurement of glucose, produced by Wako Pure Chemical Co., Japan), further warming the mixture at 37° C. for 20 minutes and measuring the absorbance of the reaction solution at 505 nm.

Solubility in solvents = assay type: physicochemical
[2] = target: T1, saccharase prepared from porcine intestinal mucosa (Sus scrofa, UniProt P56729); test: saccharase inhibitory activity, sucrose as substrate; assay type: biochemical; settings: substrate 0.05 M sucrose, read-out: IC50 (M), concentration of 50% inhibition
T1 construct: sucrase is the C-terminal subunit cleaved from the SI precursor, paired with isomaltase
T1 sequence (P56729 with tags, fused parts or gaps): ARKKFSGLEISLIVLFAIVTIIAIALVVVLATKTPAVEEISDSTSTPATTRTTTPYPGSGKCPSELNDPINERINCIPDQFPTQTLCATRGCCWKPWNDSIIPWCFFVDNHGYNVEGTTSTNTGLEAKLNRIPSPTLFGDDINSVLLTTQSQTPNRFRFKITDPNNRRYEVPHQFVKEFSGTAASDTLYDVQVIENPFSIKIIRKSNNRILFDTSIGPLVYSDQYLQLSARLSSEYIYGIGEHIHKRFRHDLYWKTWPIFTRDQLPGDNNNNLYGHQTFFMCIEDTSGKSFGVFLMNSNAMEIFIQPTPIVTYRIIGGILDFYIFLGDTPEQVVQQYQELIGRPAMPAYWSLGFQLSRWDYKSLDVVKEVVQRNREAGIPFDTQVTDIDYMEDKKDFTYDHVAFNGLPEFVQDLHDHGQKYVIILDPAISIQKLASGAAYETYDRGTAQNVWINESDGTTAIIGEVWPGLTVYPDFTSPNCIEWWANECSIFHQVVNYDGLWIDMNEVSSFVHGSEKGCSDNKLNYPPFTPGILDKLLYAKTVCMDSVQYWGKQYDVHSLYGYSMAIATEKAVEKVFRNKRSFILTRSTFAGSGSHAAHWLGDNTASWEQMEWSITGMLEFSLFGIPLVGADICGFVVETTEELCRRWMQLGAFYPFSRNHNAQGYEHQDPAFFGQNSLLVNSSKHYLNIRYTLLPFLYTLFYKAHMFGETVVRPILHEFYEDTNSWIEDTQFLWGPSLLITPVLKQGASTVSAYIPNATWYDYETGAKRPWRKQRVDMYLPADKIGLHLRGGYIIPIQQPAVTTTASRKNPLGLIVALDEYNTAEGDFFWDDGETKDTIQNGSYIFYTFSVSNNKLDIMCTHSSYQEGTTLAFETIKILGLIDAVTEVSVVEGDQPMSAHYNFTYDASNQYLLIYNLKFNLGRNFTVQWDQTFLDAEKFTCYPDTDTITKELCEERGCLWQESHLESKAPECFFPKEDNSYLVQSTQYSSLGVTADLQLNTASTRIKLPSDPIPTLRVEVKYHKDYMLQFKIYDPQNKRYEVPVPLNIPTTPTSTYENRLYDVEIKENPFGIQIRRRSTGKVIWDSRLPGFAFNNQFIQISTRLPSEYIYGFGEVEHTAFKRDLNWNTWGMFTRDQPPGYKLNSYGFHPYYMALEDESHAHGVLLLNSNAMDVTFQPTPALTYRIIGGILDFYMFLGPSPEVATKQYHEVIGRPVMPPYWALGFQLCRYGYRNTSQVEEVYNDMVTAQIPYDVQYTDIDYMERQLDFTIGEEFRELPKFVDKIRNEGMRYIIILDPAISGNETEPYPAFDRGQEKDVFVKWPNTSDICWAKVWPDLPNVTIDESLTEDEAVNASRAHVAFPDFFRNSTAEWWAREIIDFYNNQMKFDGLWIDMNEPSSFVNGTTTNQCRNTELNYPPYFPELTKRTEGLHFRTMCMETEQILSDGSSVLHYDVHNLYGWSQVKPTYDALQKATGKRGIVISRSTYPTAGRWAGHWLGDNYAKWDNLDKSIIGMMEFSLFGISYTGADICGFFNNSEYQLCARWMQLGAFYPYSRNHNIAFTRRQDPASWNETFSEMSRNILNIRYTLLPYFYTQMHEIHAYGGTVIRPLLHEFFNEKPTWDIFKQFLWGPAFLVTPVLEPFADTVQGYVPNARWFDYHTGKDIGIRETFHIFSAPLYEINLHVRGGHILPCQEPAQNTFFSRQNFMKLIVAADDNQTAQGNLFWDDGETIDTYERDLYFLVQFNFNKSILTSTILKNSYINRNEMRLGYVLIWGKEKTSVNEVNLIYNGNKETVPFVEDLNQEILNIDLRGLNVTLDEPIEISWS
Description: as §1

rats = test: Toxicity, LD50 in rats; assay type: in vivo
[3] = in ethanol, ethyl acetate, chloroform, acetone
[4] = in water, dimethylsulfoxide, methanol

Row | SMILES | IC50 [1] [M] | Solubility (Solubility in solvents; [3]) | Solubility (Solubility in solvents; [4]) | IC50 [2] [M] | LD50 (rats) [mg]
1 | N[C@H]1C[C@](O)(CO)[C@@H](O)[C@H](O)[C@H]1O [valiolamine, 1L(1S)-(1(OH), 2,4,5/1(CH2 OH),3)-5-amino-1-hydroxymethyl-1,2,3,4-cyclohexanetetrol] | 2.2e-06 | Sparingly soluble or insoluble | Soluble | 4.9e-08 | 
2 | NC1CC(O)(CO)C(O)C(O)C1O (centres unmarked) [compound [I], 5-amino-1-hydroxymethyl-1,2,3,4-cyclohexanetetrol] |  |  |  |  | ≥ 500
3 | N[C@H]1C[C@](O)(CO)C(O)C(O)C1O (some centres unmarked) [epivaliolamine] | 0.00014 | Sparing soluble or insoluble | Soluble |  | 
